Assay results taken from ChEMBL document CHEMBL3792311, “In vitro and in vivo activity of ML302F: a thioenolate inhibitor of VIM-subfamily metallo -lactamases” (Medchemcomm, 2016).
Calls of active or inactive are those of the source. The rule behind the calls is not given here.

How the values were obtained:
Enterobacter cloacae [1] = test: Potentiation of meropenem-induced antibacterial activity against VIM4 carbapenemase producing multidrug-resistant Enterobacter cloacae 102 clinical isolate assessed as MIC of meropenem at 1:8 meropenem:compound ratio by broth microtiter dilution method; assay type: functional
Klebsiella oxytoca [2] = test: Potentiation of meropenem-induced antibacterial activity against VIM4 carbapenemase producing multidrug-resistant Klebsiella oxytoca 126 clinical isolate assessed as MIC of meropenem at 1:8 meropenem:compound ratio by broth microtiter dilution method; assay type: functional
Klebsiella pneumoniae [3] = test: Potentiation of meropenem-induced antibacterial activity against VIM4 carbapenemase producing multidrug-resistant Klebsiella pneumoniae 128 clinical isolate assessed as MIC of meropenem at 1:8 meropenem:compound ratio by broth microtiter dilution method; assay type: functional
Providencia stuartii [4] = test: Potentiation of meropenem-induced antibacterial activity against VIM1 carbapenemase producing multidrug-resistant Providencia stuartii 67 clinical isolate at 1:8 meropenem:compound ratio by checkerboard method; assay type: functional
Klebsiella pneumoniae [5] = test: Potentiation of meropenem-induced antibacterial activity against VIM1 carbapenemase producing multidrug-resistant Klebsiella pneumoniae GR54 clinical isolate assessed as MIC of meropenem at 1:8 meropenem:compound ratio by broth microtiter dilution method; assay type: functional
Providencia stuartii [6] = test: Potentiation of meropenem-induced antibacterial activity against VIM1 carbapenemase producing multidrug-resistant Providencia stuartii 70 clinical isolate assessed as MIC of meropenem at 1:8 meropenem:compound ratio by broth microtiter dilution method; assay type: functional
Pseudomonas aeruginosa [7] = test: Potentiation of meropenem-induced antibacterial activity against VIM2 carbapenemase producing multidrug-resistant Pseudomonas aeruginosa 8 clinical isolate assessed as MIC of meropenem at 1:8 meropenem:compound ratio by broth microtiter dilution method; assay type: functional
[8] = Toxicity in Galleria mellonella larvae assessed as survival rate up to 80 mg/kg measured at 96 hrs; assay type: organism-based; conditions: in vivo
Escherichia coli [9] = test: Potentiation of meropenem-induced antibacterial activity against VIM4 carbapenemase producing multidrug-resistant Escherichia coli 98 clinical isolate infected in Galleria mellonella larvae assessed as survival rate at 4.8 mg/kg measured at 96 hrs; assay type: functional; conditions: Escherichia coli, 98, 96 h
Pseudomonas aeruginosa [10] = test: Potentiation of meropenem-induced antibacterial activity against VIM2 carbapenemase producing multidrug-resistant Pseudomonas aeruginosa GR62 clinical isolate at 1:8 meropenem:compound ratio by checkerboard method; assay type: functional
Pseudomonas aeruginosa [11] = test: Antibacterial activity against VIM2 carbapenemase producing multidrug-resistant Pseudomonas aeruginosa GR57 clinical isolate infected in Galleria mellonella larvae assessed as survival rate at 4.8 mg/kg measured at 96 hrs; assay type: functional, organism-based
Klebsiella pneumoniae [12] = test: Potentiation of meropenem-induced antibacterial activity against VIM4 carbapenemase producing multidrug-resistant Klebsiella pneumoniae 120 clinical isolate infected in Galleria mellonella larvae assessed as relative risk of survival at 4.8 mg/kg measured at 96 hrs relative to control; assay type: functional
Escherichia coli [13] = test: Potentiation of meropenem-induced antibacterial activity against VIM4 carbapenemase producing multidrug-resistant Escherichia coli 98 clinical isolate infected in Galleria mellonella larvae assessed as relative risk of survival at 4.8 mg/kg measured at 96 hrs relative to control; assay type: functional
Providencia stuartii [14] = test: Antibacterial activity against VIM1 carbapenemase producing multidrug-resistant Providencia stuartii 67 clinical isolate up to 512 mg/L by broth microtiter dilution method; assay type: functional, organism-based
Providencia stuartii [15] = test: Antibacterial activity against VIM1 carbapenemase producing multidrug-resistant Providencia stuartii 70 clinical isolate up to 512 mg/L by broth microtiter dilution method; assay type: functional, organism-based
Pseudomonas aeruginosa [16] = test: Antibacterial activity against VIM2 carbapenemase producing multidrug-resistant Pseudomonas aeruginosa GR57 clinical isolate up to 512 mg/L by broth microtiter dilution method; assay type: functional, organism-based
Enterobacter cloacae [17] = test: Antibacterial activity against VIM4 carbapenemase producing multidrug-resistant Enterobacter cloacae 102 clinical isolate up to 512 mg/L by broth microtiter dilution method; assay type: functional, organism-based
Klebsiella oxytoca [18] = test: Antibacterial activity against VIM4 carbapenemase producing multidrug-resistant Klebsiella oxytoca 95 clinical isolate up to 512 mg/L by broth microtiter dilution method; assay type: functional, organism-based
Klebsiella oxytoca [19] = test: Antibacterial activity against VIM4 carbapenemase producing multidrug-resistant Klebsiella oxytoca 126 clinical isolate up to 512 mg/L by broth microtiter dilution method; assay type: functional, organism-based
Klebsiella pneumoniae [20] = test: Antibacterial activity against VIM4 carbapenemase producing multidrug-resistant Klebsiella pneumoniae 101 clinical isolate up to 512 mg/L by broth microtiter dilution method; assay type: functional, organism-based
Klebsiella pneumoniae [21] = test: Antibacterial activity against VIM4 carbapenemase producing multidrug-resistant Klebsiella pneumoniae 128 clinical isolate up to 512 mg/L by broth microtiter dilution method; assay type: functional, organism-based
Klebsiella pneumoniae [22] = test: Antibacterial activity against VIM4 carbapenemase producing multidrug-resistant Klebsiella pneumoniae 196 clinical isolate up to 512 mg/L by broth microtiter dilution method; assay type: functional, organism-based
Pseudomonas aeruginosa [23] = test: Antibacterial activity against VIM2 carbapenemase producing multidrug-resistant Pseudomonas aeruginosa GR62 clinical isolate up to 512 mg/L by broth microtiter dilution method; assay type: functional, organism-based
Pseudomonas aeruginosa [24] = test: Potentiation of meropenem-induced antibacterial activity against VIM2 carbapenemase producing multidrug-resistant Pseudomonas aeruginosa 47 clinical isolate at 1:8 meropenem:compound ratio by checkerboard method; assay type: functional
Pseudomonas aeruginosa [25] = test: Potentiation of meropenem-induced antibacterial activity against VIM2 carbapenemase producing multidrug-resistant Pseudomonas aeruginosa GR57 clinical isolate at 1:8 meropenem:compound ratio by checkerboard method; assay type: functional
Pseudomonas aeruginosa [26] = test: Potentiation of meropenem-induced antibacterial activity against VIM2 carbapenemase producing multidrug-resistant Pseudomonas aeruginosa GR58 clinical isolate at 1:8 meropenem:compound ratio by checkerboard method; assay type: functional
Pseudomonas aeruginosa [27] = test: Potentiation of meropenem-induced antibacterial activity against VIM2 carbapenemase producing multidrug-resistant Pseudomonas aeruginosa 12 clinical isolate at 1:8 meropenem:compound ratio by checkerboard method; assay type: functional
Enterobacter cloacae [28] = test: Potentiation of meropenem-induced antibacterial activity against VIM4 carbapenemase producing multidrug-resistant Enterobacter cloacae 102 clinical isolate at 1:8 meropenem:compound ratio by checkerboard method; assay type: functional
Escherichia coli [29] = test: Potentiation of meropenem-induced antibacterial activity against VIM4 carbapenemase producing multidrug-resistant Escherichia coli 98 clinical isolate at 1:8 meropenem:compound ratio by checkerboard method; assay type: functional
Klebsiella pneumoniae [30] = test: Potentiation of meropenem-induced antibacterial activity against VIM4 carbapenemase producing multidrug-resistant Klebsiella pneumoniae 101 clinical isolate at 1:8 meropenem:compound ratio by checkerboard method; assay type: functional

## O=C(O)/C(S)=C/c1c(Cl)ccc(Cl)c1Cl
Enterobacter cloacae [1]
  MIC: 4 µg/mL
Klebsiella oxytoca [2]
  MIC: 4 µg/mL
Klebsiella pneumoniae [3]
  MIC: 1 µg/mL
Providencia stuartii [4]
  fractional inhibitory concentration index (FICI): 0.14
Klebsiella pneumoniae [5]
  MIC: 4 µg/mL
Providencia stuartii [6]
  MIC: 1 µg/mL
Pseudomonas aeruginosa [7]
  MIC: 16 µg/mL
[8]
  survival at 96 h: 100%
Escherichia coli [9]
  survival at 4.8 mg/kg: 69%
Pseudomonas aeruginosa [10]
  fractional inhibitory concentration index (FICI): 0.38
Pseudomonas aeruginosa [11]
  Activity: Active
Klebsiella pneumoniae [12]
  fold change (FC): 0.7
Escherichia coli [13]
  fold change (FC): 0.64
Providencia stuartii [14]
  Activity: inactive
Providencia stuartii [15]
  Activity: inactive
Pseudomonas aeruginosa [16]
  Activity: inactive
Enterobacter cloacae [17]
  Activity: inactive
Klebsiella oxytoca [18]
  Activity: inactive
Klebsiella oxytoca [19]
  Activity: inactive
Klebsiella pneumoniae [20]
  Activity: inactive
Klebsiella pneumoniae [21]
  Activity: inactive
Klebsiella pneumoniae [22]
  Activity: inactive
Pseudomonas aeruginosa [23]
  Activity: inactive
Pseudomonas aeruginosa [24]
  fractional inhibitory concentration index (FICI): 0.05
Pseudomonas aeruginosa [25]
  fractional inhibitory concentration index (FICI): 0.19
Pseudomonas aeruginosa [26]
  fractional inhibitory concentration index (FICI): 0.38
Pseudomonas aeruginosa [27]
  fractional inhibitory concentration index (FICI): 0.75
Enterobacter cloacae [28]
  fractional inhibitory concentration index (FICI): 0.19
Escherichia coli [29]
  fractional inhibitory concentration index (FICI): 0.16
Klebsiella pneumoniae [30]
  fractional inhibitory concentration index (FICI): 0.09
